Key:
Hepatitis C virus [1] = test: Antiviral activity against Hepatitis C virus subtype 1b infected in Huh-7 cells transfected with HCV subgenomic replicon for NS5B polymerase assessed as inhibition of viral replication measured upto 96 hrs by luciferase reporter gene assay; type: functional, organism-based, Hepacivirus hominis
Hepatitis C virus [2] = test: Antiviral activity against Hepatitis C virus subtype 1b infected in Huh-7 cells transfected with HCV subgenomic replicon for NS5B polymerase assessed as inhibition of viral replication measured upto 96 hrs in presence of 40% of human serum by luciferase reporter gene assay; type: functional, organism-based, Hepacivirus hominis; conditions: Huh-7, 96 h
[3] = Cytotoxicity against human Huh-7 cells transfected with HCV subgenomic replicon for NS5B polymerase assessed as reduction in cell viability; type: toxicity, cell-based
[4] = Protein binding in rat plasma at 1 uM incubated for 6 hrs by LC-MS/MS based rapid equilibrium dialysis method; type: ADME, cell-free; conditions: read-out: PPB (converted)
[5] = AUC (0 to infinity) in Sprague-Dawley rat at 1 mg/kg,iv and measured after 72 hrs by LC/MS/MS analysis; type: ADME, organism-based; parameters: time 72 hrs, dose 1 mg/kg, route iv; conditions: Sprague-Dawley, in vivo
[6] = Unbound AUC (0 to infinity) in Sprague-Dawley rat at 1 mg/kg,iv and measured after 72 hrs by LC/MS/MS analysis; type: ADME, organism-based; conditions: in vivo
[7] = Clearance in Sprague-Dawley rat at 1 mg/kg,iv and measured after 72 hrs by LC/MS/MS analysis; type: ADME, organism-based; conditions: in vivo
[8] = Unbound clearance in Sprague-Dawley rat at 1 mg/kg,iv and measured after 72 hrs by LC/MS/MS analysis; type: ADME, organism-based; conditions: in vivo
[9] = Half life in Sprague-Dawley rat at 1 mg/kg,iv and measured after 72 hrs by LC/MS/MS analysis; type: ADME, organism-based; conditions: in vivo
[10] = Volume of distribution at steady state in Sprague-Dawley rat at 1 mg/kg,iv and measured after 72 hrs by LC/MS/MS analysis; type: ADME, organism-based; conditions: in vivo, read-out: Vdss
[11] = AUC (0 to infinity) in Sprague-Dawley rat at 3 mg/kg,po and measured after 72 hrs by LC/MS/MS analysis; type: ADME, organism-based; parameters: time 72 hrs, dose 3 mg/kg, route po; conditions: in vivo
[12] = Unbound AUC (0 to infinity) in Sprague-Dawley rat at 3 mg/kg,po and measured after 72 hrs by LC/MS/MS analysis; type: ADME, organism-based; conditions: in vivo
[13] = Cmax in Sprague-Dawley rat at 3 mg/kg,po and measured after 72 hrs by LC/MS/MS analysis; type: ADME, organism-based; parameters: time 72 hrs, dose 3 mg/kg, route po; conditions: in vivo
[14] = Oral bioavailability in Sprague-Dawley rat at 3 mg/kg and measured after 72 hrs by LC/MS/MS analysis; type: ADME, organism-based; conditions: in vivo
[15] = Half life in Sprague-Dawley rat at 3 mg/kg,po and measured after 72 hrs by LC/MS/MS analysis; type: ADME, organism-based; conditions: in vivo
[16] = Microsomal stability in rat liver microsomes assessed as parent compound remaining at 1 uM and measured after 30 mins in presence of NADPH by LC/MS/MS analysis; type: ADME, Microsome; conditions: 0.5 h
[17] = Microsomal stability in human liver microsomes assessed as parent compound remaining at 1 uM and measured after 30 mins in presence of NADPH by LC/MS/MS analysis; type: ADME, Microsome; conditions: 0.5 h
Cytochrome P450 3A4 = Cytochrome P450 3A4 (Homo sapiens, UniProt P08684); test: Inhibition of CYP3A4 in human liver microsomes incubated for 10 mins in presence of NADPH by LC/MS/MS analysis; type: ADME, Microsome
Cytochrome P450 3A4, sequence (P08684 whole entry): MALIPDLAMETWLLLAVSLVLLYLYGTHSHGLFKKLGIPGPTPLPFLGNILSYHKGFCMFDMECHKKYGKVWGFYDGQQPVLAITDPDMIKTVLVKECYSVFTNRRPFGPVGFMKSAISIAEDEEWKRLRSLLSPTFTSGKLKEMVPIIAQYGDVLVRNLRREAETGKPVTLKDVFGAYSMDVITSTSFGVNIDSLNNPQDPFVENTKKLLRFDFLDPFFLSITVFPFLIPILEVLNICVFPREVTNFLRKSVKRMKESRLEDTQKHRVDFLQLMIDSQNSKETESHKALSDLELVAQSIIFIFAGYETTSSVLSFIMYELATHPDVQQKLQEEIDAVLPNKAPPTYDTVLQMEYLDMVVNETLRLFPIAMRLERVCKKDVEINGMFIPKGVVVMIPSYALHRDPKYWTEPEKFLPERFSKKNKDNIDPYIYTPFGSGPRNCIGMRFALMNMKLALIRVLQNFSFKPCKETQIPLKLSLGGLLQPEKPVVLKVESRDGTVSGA

Cytochrome P450 2D6 = Cytochrome P450 2D6 (Homo sapiens, UniProt P10635); test: Inhibition of CYP2D6 in human liver microsomes incubated for 10 mins in presence of NADPH by LC/MS/MS analysis; type: ADME, Microsome
Cytochrome P450 2D6, sequence (P10635 whole entry): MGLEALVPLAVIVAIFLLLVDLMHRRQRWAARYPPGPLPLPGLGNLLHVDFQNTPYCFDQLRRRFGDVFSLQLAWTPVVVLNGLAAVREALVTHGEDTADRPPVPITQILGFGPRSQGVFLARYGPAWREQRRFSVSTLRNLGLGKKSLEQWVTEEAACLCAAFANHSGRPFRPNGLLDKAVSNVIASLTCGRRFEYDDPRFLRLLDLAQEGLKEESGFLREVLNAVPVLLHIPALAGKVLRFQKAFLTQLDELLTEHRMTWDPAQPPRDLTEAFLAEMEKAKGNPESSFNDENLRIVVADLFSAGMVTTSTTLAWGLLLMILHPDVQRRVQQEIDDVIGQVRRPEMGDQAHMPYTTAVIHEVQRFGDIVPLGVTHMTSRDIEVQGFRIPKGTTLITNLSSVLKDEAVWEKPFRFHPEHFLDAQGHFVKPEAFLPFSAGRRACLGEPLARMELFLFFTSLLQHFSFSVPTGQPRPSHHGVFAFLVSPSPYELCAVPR

Cytochrome P450 2C9 = Cytochrome P450 2C9 (Homo sapiens, UniProt P11712); test: Inhibition of CYP2C9 in human liver microsomes incubated for 10 mins in presence of NADPH by LC/MS/MS analysis; type: ADME, Microsome
Cytochrome P450 2C9, sequence (P11712 whole entry): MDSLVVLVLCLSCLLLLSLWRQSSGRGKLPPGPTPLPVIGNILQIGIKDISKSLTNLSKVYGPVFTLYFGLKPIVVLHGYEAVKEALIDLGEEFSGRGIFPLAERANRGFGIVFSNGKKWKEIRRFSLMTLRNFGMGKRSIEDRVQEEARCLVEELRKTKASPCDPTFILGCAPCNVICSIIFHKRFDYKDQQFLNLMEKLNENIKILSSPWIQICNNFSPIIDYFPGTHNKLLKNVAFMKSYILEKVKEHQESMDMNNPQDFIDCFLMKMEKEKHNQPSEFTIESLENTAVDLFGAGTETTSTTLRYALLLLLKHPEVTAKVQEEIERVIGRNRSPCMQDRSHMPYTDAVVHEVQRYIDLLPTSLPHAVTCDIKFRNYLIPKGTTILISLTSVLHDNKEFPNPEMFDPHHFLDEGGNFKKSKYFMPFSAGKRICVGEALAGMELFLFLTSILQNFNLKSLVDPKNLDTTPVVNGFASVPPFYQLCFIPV

[18] = molecular target: T1, Nuclear receptor subfamily 1 group I member 2 (Homo sapiens, UniProt O75469); test: Activation of human PXR expressed in human DPX2 co-expressing luciferase reporter gene incubated for 24 hrs by luciferase assay; type: cell-based
T1 sequence (O75469 whole entry): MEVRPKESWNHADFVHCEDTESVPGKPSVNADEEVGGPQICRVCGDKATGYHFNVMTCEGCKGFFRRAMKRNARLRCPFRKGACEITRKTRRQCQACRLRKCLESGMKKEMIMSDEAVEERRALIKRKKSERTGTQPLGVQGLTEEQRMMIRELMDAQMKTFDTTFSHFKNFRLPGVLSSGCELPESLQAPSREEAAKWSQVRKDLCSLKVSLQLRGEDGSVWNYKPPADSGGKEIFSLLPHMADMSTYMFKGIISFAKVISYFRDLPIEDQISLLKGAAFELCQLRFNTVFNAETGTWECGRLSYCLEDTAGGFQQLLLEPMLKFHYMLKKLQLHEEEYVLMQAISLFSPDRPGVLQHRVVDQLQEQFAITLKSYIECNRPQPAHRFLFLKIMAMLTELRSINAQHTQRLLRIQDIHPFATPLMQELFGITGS

PXR = molecular target: T2, PXR (Homo sapiens, UniProt O75469); test: Activation of human PXR expressed in human DPX2 co-expressing luciferase reporter gene assessed as maximum efficacy incubated for 24 hrs by luciferase assay relative to control; type: cell-based; conditions: DPX2 cells expressing human PXR and luciferase reporter gene
T2 sequence (O75469 whole entry): T1 sequence (O75469 whole entry)

[19] = AUC (0 to infinity) in Sinclair Lab dog at 1 mg/kg,iv and measured after 72 hrs by LC/MS/MS analysis; type: ADME, organism-based, Canis lupus familiaris; parameters: time 72 hrs, dose 1 mg/kg, route iv; conditions: in vivo
[20] = Unbound AUC (0 to infinity) in Sinclair Lab dog at 1 mg/kg,iv and measured after 72 hrs by LC/MS/MS analysis; type: ADME, organism-based, Canis lupus familiaris; conditions: in vivo
[21] = Clearance in Sinclair Lab dog at 1 mg/kg,iv and measured after 72 hrs by LC/MS/MS analysis; type: ADME, organism-based, Canis lupus familiaris; conditions: in vivo
[22] = Unbound clearance in Sinclair Lab dog at 1 mg/kg,iv and measured after 72 hrs by LC/MS/MS analysis; type: ADME, organism-based, Canis lupus familiaris; conditions: in vivo
[23] = Half life in Sinclair Lab dog at 1 mg/kg,iv and measured after 72 hrs by LC/MS/MS analysis; type: ADME, organism-based, Canis lupus familiaris; conditions: in vivo
[24] = Volume of distribution at steady state in Sinclair Lab dog at 1 mg/kg,iv and measured after 72 hrs by LC/MS/MS analysis; type: ADME, organism-based, Canis lupus familiaris; conditions: in vivo, read-out: Vdss
[25] = AUC (0 to infinity) in Cynomolgus monkey at 1 mg/kg,iv and measured after 72 hrs by LC/MS/MS analysis; type: ADME, organism-based, Macaca fascicularis; parameters: dose 1 mg/kg, time 72 hrs, route iv; conditions: in vivo
[26] = Unbound AUC (0 to infinity) in Cynomolgus monkey at 1 mg/kg,iv and measured after 72 hrs by LC/MS/MS analysis; type: ADME, organism-based, Macaca fascicularis; conditions: in vivo
[27] = Clearance in Cynomolgus monkey at 1 mg/kg,iv and measured after 72 hrs by LC/MS/MS analysis; type: ADME, organism-based, Macaca fascicularis; conditions: in vivo
[28] = Unbound clearance in Cynomolgus monkey at 1 mg/kg,iv and measured after 72 hrs by LC/MS/MS analysis; type: ADME, organism-based, Macaca fascicularis; conditions: in vivo
[29] = Half life in Cynomolgus monkey at 1 mg/kg,iv and measured after 72 hrs by LC/MS/MS analysis; type: ADME, organism-based, Macaca fascicularis; conditions: in vivo
[30] = Volume of distribution at steady state in Cynomolgus monkey at 1 mg/kg,iv and measured after 72 hrs by LC/MS/MS analysis; type: ADME, organism-based, Macaca fascicularis; conditions: in vivo, read-out: Vdss
[31] = Drug uptake in human hepatocytes at 37 degree C for 15 mins by LC/MS/MS analysis; type: ADME, cell-based, Hepatocyte; conditions: 0.25 h
[32] = Drug uptake in human hepatocytes at 4 degree C for 15 mins by LC/MS/MS analysis; type: ADME, cell-based, Hepatocyte; conditions: 0.25 h
[33] = Drug excretion in bile-duct cannulated Sprague-Dawley rat assessed as bile elimination at 15 mg/kg,po and measured after 72 hrs by LC/MS/MS analysis; type: ADME, organism-based; conditions: in vivo
[34] = Drug distribution in Sprague-Dawley rat liver at 10 mg/kg,po and measured upto 24 hrs by LC/MS/MS analysis; type: ADME, organism-based; conditions: in vivo
[35] = Drug distribution in Sprague-Dawley rat plasma at 10 mg/kg,po and measured upto 24 hrs by LC/MS/MS analysis; type: ADME, organism-based; conditions: in vivo

Work on CN1CCCC[C@H](N(c2cc(C#CC(C)(C)C)sc2C(=O)O)C(=O)[C@H]2CC[C@H](C)CC2)C1=O yielded an IC50 (Hepatitis C virus [1]; Huh-7, 96 h) of 4 nM, an IC90 (Hepatitis C virus [1]; Huh-7, time <= 96 hrs) of 12 nM and an IC50 (Hepatitis C virus [2]) of 23 nM. The CC50 [3] was > 20000 nM, the fraction unbound at 6 h, 1 µM [4] was 0.008 and the AUC(0-inf) [5] was 1480 ng·h/mL. It also gave a fAUC [6] of 11.8 ng·h/mL, a clearance [7] of 16.1 mL/min/kg and a CL free [8] of 2010 mL/min/kg. It also gave a half-life [9] of 2.12 h, a Vd [10] of 1.95 L/kg and an AUC(0-inf) [11] of 3820 ng·h/mL. The fAUC [12] was 30.6 ng·h/mL, the Cmax [13] was 1040 ng/mL and the bioavailability [14] was 97%. For the same compound, the half-life [15] was 2.91 h, the Stability [16] was “Stable” and the Stability [17] was “Stable”. The IC50 (Cytochrome P450 3A4) was > 30000 nM, the IC50 (Cytochrome P450 2D6) was > 30000 nM and the IC50 (Cytochrome P450 2C9) was > 30000 nM. For the same compound, the EC50 [18] was > 30000 nM, the Emax at 24 h (PXR) was 10% and the AUC(0-inf) [19] was 1450 ng·h/mL. For the same compound, the fAUC [20] was 10.1 ng·h/mL, the clearance [21] was 15 mL/min/kg and the CL free [22] was 2140 mL/min/kg. The half-life [23] was 1.39 h, the Vd [24] was 1.59 L/kg and the AUC(0-inf) [25] was 443 ng·h/mL. For the same compound, the fAUC [26] was 4.43 ng·h/mL, the clearance [27] was 33.5 mL/min/kg and the CL free [28] was 3350 mL/min/kg. The half-life [29] was 5.44 h, the Vd [30] was 5.27 L/kg and the Drug uptake [31] was “Active”. For the same compound, the Drug uptake [32] was “Active”, the Drug excretion [33] was “Active” and the Drug uptake [34] was “Active”. The Drug uptake [35] was “Active”.

— ChEMBL document CHEMBL5260802, “Discovery of Novel Allosteric HCV NS5B Inhibitors. 2. Lactam-Containing Thiophene Carboxylates” (ACS Med Chem Lett, 2017)
